Source: the supplement of paper PMC10307832

What was measured:
Assay in all cases: relative viability (nuclei count vs DMSO), 5 days (fraction); higher = more cells survive
[1] = compound: C(C(=O)C(=O)O)Br [Bromopyruvate] + CC(=O)c1c(C)c2cnc(Nc3ccc(N4CCNCC4)cn3)nc2n(C2CCCC2)c1=O [Palbociclib] (partner 0.5 µM)
Outline: (§1)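 Cells from lung cancer lines were seeded into 1536-well plates and, one day later, dosed by pin tool. Treatments were either a single drug or a fixed dose of an anchor drug with five library-drug doses (not always all listed) in √10 steps. After 5 days, nuclei were stained in a one-step fixation (final 0.05% Triton X-100, 1% formaldehyde, 1 ug/ml Hoechst) and counted on 4× images, and relative viability is the treated-to-vehicle nuclei ratio, as the median of duplicate plates.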

[2] = compound: C(C(=O)C(=O)O)Br [Bromopyruvate] + CC1(C)CCC(c2ccc(Cl)cc2)=C(CN2CCN(c3ccc(C(=O)NS(=O)(=O)c4ccc(N[C@H](CCN5CCOCC5)CSc5ccccc5)c(S(=O)(=O)C(F)(F)F)c4)cc3)CC2)C1 [Navitoclax] (partner 0.5 µM)
Outline: as §1

[3] = compound: CC(O)(CS(=O)(=O)c1ccc(F)cc1)C(=O)Nc1ccc(C#N)c(C(F)(F)F)c1 [Bicalutamide] + C[C@@H](Oc1cc(-c2cnn(C3CCNCC3)c2)cnc1N)c1c(Cl)ccc(F)c1Cl [Crizotinib] (partner 1 µM)
Outline: as §1

[4] = compound: CC(O)(CS(=O)(=O)c1ccc(F)cc1)C(=O)Nc1ccc(C#N)c(C(F)(F)F)c1 [Bicalutamide] + C[C@]1(O)C[C@@H](c2nc(-c3ccc4ccc(-c5ccccc5)nc4c3)c3c(N)nccn32)C1 [Linsitinib] (partner 1 µM)
Outline: as §1

NCI-H1944
relative viability ([1]; first compound 1 µM): 0.32
relative viability ([1]; first compound 3.162 µM): 0.333
relative viability ([1]; first compound 10 µM): 0.335
relative viability ([1]; first compound 31.62 µM): 0.319
relative viability ([1]; first compound 100 µM): 0.311
relative viability ([2]; first compound 1 µM): 1.08
relative viability ([2]; first compound 3.162 µM): 1.15
relative viability ([2]; first compound 10 µM): 1.02
relative viability ([2]; first compound 31.62 µM): 1.01
relative viability ([2]; first compound 100 µM): 1.05
relative viability ([3]; first compound 0.08 µM): 1.07
relative viability ([3]; first compound 0.253 µM): 0.982
relative viability ([3]; first compound 0.8 µM): 1.28
relative viability ([3]; first compound 2.53 µM): 1.12
relative viability ([4]; first compound 0.08 µM): 1.07
relative viability ([4]; first compound 0.253 µM): 1.15
relative viability ([4]; first compound 0.8 µM): 1.27
relative viability ([4]; first compound 2.53 µM): 1.14

NCI-H1975
relative viability ([1]; first compound 1 µM): 0.66
relative viability ([1]; first compound 3.162 µM): 0.619
relative viability ([1]; first compound 10 µM): 0.566
relative viability ([1]; first compound 31.62 µM): 0.551
relative viability ([1]; first compound 100 µM): 0.569
relative viability ([2]; first compound 1 µM): 1.18
relative viability ([2]; first compound 3.162 µM): 1.26
relative viability ([2]; first compound 10 µM): 1.08
relative viability ([2]; first compound 31.62 µM): 1.31
relative viability ([2]; first compound 100 µM): 0.994
relative viability ([3]; first compound 0.08 µM): 0.97
relative viability ([3]; first compound 0.253 µM): 0.915
relative viability ([3]; first compound 0.8 µM): 1.08
relative viability ([3]; first compound 2.53 µM): 0.781
relative viability ([4]; first compound 0.08 µM): 0.947
relative viability ([4]; first compound 0.253 µM): 0.917
relative viability ([4]; first compound 0.8 µM): 1.1
relative viability ([4]; first compound 2.53 µM): 0.656

NCI-H1993
relative viability ([1]; first compound 1 µM): 0.536
relative viability ([1]; first compound 3.162 µM): 0.661
relative viability ([1]; first compound 10 µM): 0.813
relative viability ([1]; first compound 31.62 µM): 0.629
relative viability ([1]; first compound 100 µM): 0.775
relative viability ([2]; first compound 1 µM): 1.02
relative viability ([2]; first compound 3.162 µM): 0.96
relative viability ([2]; first compound 10 µM): 0.925
relative viability ([2]; first compound 31.62 µM): 1.09
relative viability ([2]; first compound 100 µM): 0.901
relative viability ([3]; first compound 0.253 µM): 0.83
relative viability ([3]; first compound 0.8 µM): 0.978
relative viability ([3]; first compound 2.53 µM): 0.778
relative viability ([4]; first compound 0.253 µM): 0.77
relative viability ([4]; first compound 0.8 µM): 0.707
relative viability ([4]; first compound 2.53 µM): 0.738

NCI-H2009
relative viability ([1]; first compound 1 µM): 0.208
relative viability ([1]; first compound 3.162 µM): 0.214
relative viability ([1]; first compound 10 µM): 0.227
relative viability ([1]; first compound 31.62 µM): 0.179
relative viability ([1]; first compound 100 µM): 0.0903
relative viability ([2]; first compound 1 µM): 1.15
relative viability ([2]; first compound 3.162 µM): 1.26
relative viability ([2]; first compound 10 µM): 1.22
relative viability ([2]; first compound 31.62 µM): 1.06
relative viability ([2]; first compound 100 µM): 0.899
relative viability ([3]; first compound 0.08 µM): 1.01
relative viability ([3]; first compound 0.253 µM): 1.01
relative viability ([3]; first compound 0.8 µM): 1.04
relative viability ([3]; first compound 2.53 µM): 0.973
relative viability ([4]; first compound 0.08 µM): 1.19
relative viability ([4]; first compound 0.253 µM): 1.12
relative viability ([4]; first compound 0.8 µM): 1.16
relative viability ([4]; first compound 2.53 µM): 1.16

NCI-H2023
relative viability ([1]; first compound 1 µM): 0.406
relative viability ([1]; first compound 3.162 µM): 0.382
relative viability ([1]; first compound 10 µM): 0.4
relative viability ([1]; first compound 31.62 µM): 0.411
relative viability ([1]; first compound 100 µM): 0.385
relative viability ([2]; first compound 1 µM): 0.97
relative viability ([2]; first compound 3.162 µM): 1.06
relative viability ([2]; first compound 10 µM): 1.06
relative viability ([2]; first compound 31.62 µM): 1.09
relative viability ([2]; first compound 100 µM): 1.06
relative viability ([3]; first compound 0.08 µM): 0.691
relative viability ([3]; first compound 0.253 µM): 0.601
relative viability ([3]; first compound 0.8 µM): 0.679
relative viability ([3]; first compound 2.53 µM): 0.462
relative viability ([4]; first compound 0.08 µM): 0.721
relative viability ([4]; first compound 0.253 µM): 0.723
relative viability ([4]; first compound 0.8 µM): 0.597
relative viability ([4]; first compound 2.53 µM): 0.715

NCI-H2085
relative viability ([1]; first compound 1 µM): 0.491
relative viability ([1]; first compound 3.162 µM): 0.469
relative viability ([1]; first compound 10 µM): 0.489
relative viability ([1]; first compound 31.62 µM): 0.539
relative viability ([1]; first compound 100 µM): 0.521
relative viability ([2]; first compound 1 µM): 1.08
relative viability ([2]; first compound 3.162 µM): 1.19
relative viability ([2]; first compound 10 µM): 1.25
relative viability ([2]; first compound 31.62 µM): 1.07
relative viability ([2]; first compound 100 µM): 1.05
relative viability ([3]; first compound 0.08 µM): 0.904
relative viability ([3]; first compound 0.253 µM): 0.822
relative viability ([3]; first compound 0.8 µM): 0.816
relative viability ([3]; first compound 2.53 µM): 0.745
relative viability ([4]; first compound 0.08 µM): 0.856
relative viability ([4]; first compound 0.253 µM): 1.04
relative viability ([4]; first compound 0.8 µM): 0.938
relative viability ([4]; first compound 2.53 µM): 0.794

NCI-H2087
relative viability ([1]; first compound 1 µM): 0.222
relative viability ([1]; first compound 3.162 µM): 0.232
relative viability ([1]; first compound 10 µM): 0.19
relative viability ([1]; first compound 31.62 µM): 0.221
relative viability ([1]; first compound 100 µM): 0.227
relative viability ([2]; first compound 1 µM): 0.974
relative viability ([2]; first compound 3.162 µM): 1.08
relative viability ([2]; first compound 10 µM): 0.987
relative viability ([2]; first compound 31.62 µM): 0.966
relative viability ([2]; first compound 100 µM): 1.02
relative viability ([3]; first compound 0.08 µM): 1
relative viability ([3]; first compound 0.253 µM): 0.993
relative viability ([3]; first compound 0.8 µM): 0.887
relative viability ([3]; first compound 2.53 µM): 0.971
relative viability ([4]; first compound 0.08 µM): 1.03
relative viability ([4]; first compound 0.253 µM): 1.07
relative viability ([4]; first compound 0.8 µM): 0.95
relative viability ([4]; first compound 2.53 µM): 0.77

NCI-H2126
relative viability ([1]; first compound 1 µM): 0.34
relative viability ([1]; first compound 3.162 µM): 0.335
relative viability ([1]; first compound 10 µM): 0.306
relative viability ([1]; first compound 31.62 µM): 0.375
relative viability ([1]; first compound 100 µM): 0.343
relative viability ([2]; first compound 1 µM): 0.827
relative viability ([2]; first compound 3.162 µM): 0.9
relative viability ([2]; first compound 10 µM): 0.906
relative viability ([2]; first compound 31.62 µM): 0.856
relative viability ([2]; first compound 100 µM): 0.873
relative viability ([3]; first compound 0.08 µM): 1.06
relative viability ([3]; first compound 0.253 µM): 0.983
relative viability ([3]; first compound 0.8 µM): 1.06
relative viability ([3]; first compound 2.53 µM): 0.945
relative viability ([4]; first compound 0.08 µM): 0.737
relative viability ([4]; first compound 0.253 µM): 0.724
relative viability ([4]; first compound 0.8 µM): 0.731
relative viability ([4]; first compound 2.53 µM): 0.68

NCI-H2228
relative viability ([1]; first compound 1 µM): 0.791
relative viability ([1]; first compound 3.162 µM): 0.9
relative viability ([1]; first compound 10 µM): 0.665
relative viability ([1]; first compound 31.62 µM): 0.85
relative viability ([1]; first compound 100 µM): 0.775
relative viability ([2]; first compound 1 µM): 0.936
relative viability ([2]; first compound 3.162 µM): 0.698
relative viability ([2]; first compound 10 µM): 0.864
relative viability ([2]; first compound 31.62 µM): 0.469
relative viability ([2]; first compound 100 µM): 0.63
relative viability ([3]; first compound 0.08 µM): 0.443
relative viability ([3]; first compound 0.253 µM): 0.52
relative viability ([3]; first compound 0.8 µM): 0.754
relative viability ([3]; first compound 2.53 µM): 0.463
relative viability ([4]; first compound 0.08 µM): 0.627
relative viability ([4]; first compound 0.253 µM): 0.573
relative viability ([4]; first compound 0.8 µM): 0.824
relative viability ([4]; first compound 2.53 µM): 0.957
